Results reported in patent US20260191874A1, “FUSED AMINO PYRIMIDINE COMPOUNDS FOR TREATMENT OF AUTISM SPECTRUM DISORDER, OBSESSIVE COMPULSIVE DISORDER AND TICS” (Ovid Therapeutics Inc., priority 2024, published 2026).

Key:
KCC4 = biological target: T1, KCC4 (Homo sapiens, UniProt Q9Y666); test: Tl+ flux assay in HEK-293 cells expressing KCC4; format: cell-based; conditions: read-out: concentration at which effects on KCC4 were seen (EC50 chart, FIG. 1G)
T1 construct: expressed in transfected cells; host or cells: HEK-293
T1 sequence (Q9Y666 1-1083): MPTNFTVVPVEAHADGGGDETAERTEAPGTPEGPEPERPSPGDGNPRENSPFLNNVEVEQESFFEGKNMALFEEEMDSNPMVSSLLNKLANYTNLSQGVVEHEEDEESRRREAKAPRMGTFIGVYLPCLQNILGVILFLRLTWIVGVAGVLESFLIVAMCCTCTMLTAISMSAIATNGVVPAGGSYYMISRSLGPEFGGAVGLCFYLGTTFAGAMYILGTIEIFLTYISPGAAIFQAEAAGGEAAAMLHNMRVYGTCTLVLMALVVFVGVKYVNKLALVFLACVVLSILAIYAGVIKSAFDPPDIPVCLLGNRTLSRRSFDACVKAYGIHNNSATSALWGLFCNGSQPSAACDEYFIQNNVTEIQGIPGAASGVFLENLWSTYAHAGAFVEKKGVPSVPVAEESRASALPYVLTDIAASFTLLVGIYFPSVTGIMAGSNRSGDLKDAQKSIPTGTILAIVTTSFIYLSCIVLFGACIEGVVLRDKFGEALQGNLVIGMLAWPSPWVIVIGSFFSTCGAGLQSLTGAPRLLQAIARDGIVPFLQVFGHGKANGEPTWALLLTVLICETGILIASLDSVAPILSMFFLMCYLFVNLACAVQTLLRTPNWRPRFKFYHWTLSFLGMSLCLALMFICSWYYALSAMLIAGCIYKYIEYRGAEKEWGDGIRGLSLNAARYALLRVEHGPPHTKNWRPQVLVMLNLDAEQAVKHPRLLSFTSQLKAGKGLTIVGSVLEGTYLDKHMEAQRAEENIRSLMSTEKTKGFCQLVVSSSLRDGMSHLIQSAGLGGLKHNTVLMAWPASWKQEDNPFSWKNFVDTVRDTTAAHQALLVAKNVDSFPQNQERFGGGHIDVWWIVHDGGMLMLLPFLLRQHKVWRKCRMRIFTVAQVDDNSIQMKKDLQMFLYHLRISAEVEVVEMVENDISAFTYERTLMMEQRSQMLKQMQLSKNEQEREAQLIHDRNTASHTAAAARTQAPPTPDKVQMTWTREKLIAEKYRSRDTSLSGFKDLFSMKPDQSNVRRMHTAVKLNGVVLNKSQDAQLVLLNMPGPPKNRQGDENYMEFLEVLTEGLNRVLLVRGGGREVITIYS
Description: FLIPR TI Flux assay. HEK-293 cells were washed with HBSS, and then incubated with loading buffer containing TI sensitive fluorescent dye (https://www.moleculardevices.com), 20 μM bumetanide 20 μM ouabain and 2.5 mM probenecid for 1 h at room temperature (RT) under control conditions or with drugs in the dark using a FlexStation 3 microplate reader (Molecular Devices) and imaged […] for 30 min. Stimulus buffer was added containing 5 mM K^+/0.5 mM Tl^+ and cells were imaged every 1.5 over a 190 second time course The initial rate Tl^+ uptake (Relative Fluorescence Units (RFU) per second) was determined following addition of the stimulus buffer as outlined previously (Conway et al., 2017, supra) (Lee et al., 2022, supra).
Several studies have shown that the activity and plasma membrane accumulation of KCC2 is potentiated via phosphorylation of S940, a process mediated by the activity of protein kinase C and protein phosphatase 1 (Lee et al., 2011, supra; Lee et al., J Biol Chem 282, 29777-29784 (2007); Moore et al., Proc. Natl. Acad. Sci. U.S.A 115, 10166-10171 (2018); Moore et al., Trends Neurosci. 40, 555-571 (2017); Silayeva et al., Proc. Natl. Acad. Sci. U.S.A 112, 3523-3528 (2015)). […] Compared to KCC2, effects on KCC3, KCC4, and NKCC1 were only seen at concentrations more than 35-fold that of KCC2 (≥100 μM) (FIG. 1G).

[1] = test system: panel of 144 protein kinases; test: SelectScreen protein kinase panel; format: biochemical; conditions: 144 protein kinases incl. PKC isoforms, OSR1, SPAK, WNK
Description: Aliquots of HEK-293 cells expressing KCC2 were exposed to 30 μM SSA, heated from 37-55° C. The remaining level of soluble native KCC2 at each temperature was measured by immunoblotting and normalized to the level seen at 37° C. which was given a value of 1. […] This panel included protein kinase C isoforms, OSR1, SPAK (STK39) and with-no-lysine kinases (WNK), all of which phosphorylate KCC2 on multiple residues to indirectly modify its activity (Kahle et al., 2013, supra; Smalley et al., 2020, supra).

[2] = PK studies: brain and plasma levels by LC-MS/MS; format: in vivo, mice
[3] = set-up: species or system mice; conditions: in vivo

**Q.** What does the source list for `C[C@@H]1CN(c2nc3c(c(Nc4ccc(C5CCCCC5)cc4)n2)COC3)CCO1` [Compound A, (R)—N-(4-cyclohexylphenyl)-2-(2-methylmorpholino)-5,7-dihydrofuro[3,4-d]pyrimidin-4-amine]?
**A.** EC50 (KCC4): ≥ 100 µM; effect on activity of kinase panel [1]: did not modify the activity; time by which accumulation in the brain was evident ([2]; 25 mg/kg IV bolus, mice): ≤ 30 min; time at which accumulation in brain was detected ([2]; 50 mg/kg SC): 30 min; time of maximal concentration in brain ([2]; 50 mg/kg SC): 4 h; gross effects on mouse behavior [3]: no gross effects; total distance traveled in open field ([3]; mouse, sc, 50 mg/kg): 6134.2±235.3 cm
